Converted amounts (≈) assume the structure as drawn. Counter-ions that a name gives are not always drawn.
Legend:
[1] = Nail swelling of human nail clippings in itraconazole formulations; settings: FIG. 3a, 32 °C, 48 h
Method: The experimental procedure was the following: Clean human nail clippings were equilibrated to a constant weight by placing them in a desiccator over saturated CaCl2.6H2 O solution (29% relative humidity at room temperature) for at least 48 hours before use. Approximately 30 mg of human nail clippings were weighed into a glass vial. The exact initial weight was recorded. Four grams of the test formulation (pre-warmed to 32° C.) was added into the vial and maintained at 32° C. under stirring in a Heating/Stirring Module (Reacti-Therm III, Pierce). The changes in nail weights were monitored at predetermined intervals over 48 hours. […]
The nail swelling was expressed by the percentage of the initial nail weight (i.e., 100% of the initial nail weight means no swelling, and 200% means a nail swelling doubling the original weight, etc). An enhancement factor is used to show the increase in nail swelling due to the presence of nail penetration enhancer in comparison to the control, which were calculated according to the formula: enhancement factor=(% weight gain of the test nail sample)/(% weight gain of control nail sample, i.e., no enhancer & urea in the formulation). […] The drug concentration in nail was calculated by dividing the amount of the drug in nail (mg) by the weight of the initial nail clipping (i.e., dry nail weight in gram). […]

[2] = Miconazole nitrate partitioning into nail; assay type: in vitro ADME, human; settings: FIG. 7; 1% miconazole nitrate, 20% urea, 10% N-acetyl-l-cysteine cream, pH 9.0
Method: (§1) The experimental procedure was the following: Clean human nail clippings were equilibrated to a constant weight by placing them in a desiccator over saturated CaCl2.6H2 O solution (29% relative humidity at room temperature) for at least 48 hours before use. Approximately 30 mg of human nail clippings were weighed into a glass vial. The exact initial weight was recorded. Four grams of the test formulation (pre-warmed to 32° C.) was added into the vial and maintained at 32° C. under stirring in a Heating/Stirring Module (Reacti-Therm III, Pierce). The changes in nail weights were monitored at predetermined intervals over 48 hours. At the end of the swelling experiment, the nail sample was rinsed with a mixture of N,N-dimethylformamide and methanol (1:1) to remove surface-bound drug. The nail sample was then digested, and the drug concentration in nail was determined by high pressure liquid chromatography method as described by Badcock and Davies, Assay of itraconazole in nail clippings by reversed phase, high performance liquid chromatography, Ann. Clin. Biochem, 27 (1990) 506-508.
(§2) A nail swelling and drug partitioning experiment was also conducted for miconazole nitrate using procedures analogous to those described above. […]

[3] = Nail swelling in miconazole nitrate cream formulation; design: species or system human; settings: FIG. 7; 1% miconazole nitrate, 20% urea, 10% N-acetyl-l-cysteine cream, pH 9.0
Method: as §1, §2

[4] = Nail swelling-pH profile (urea/propylene carbonate/propylene glycol/N-acetyl-l-cysteine/water); design: species or system human; settings: FIG. 8; pH 3.2-7.0, 32 °C
Method: as §1
It should be noted that, unlike the itraconazole formulations discussed above, which were tested at pH 3, the pH value of the miconazole nitrate formulation was set at pH 9. […] This was confirmed by the swelling-pH profile shown in FIG. 8, using the following formulation: […]

[5] = after nail avulsion; cited from earlier work
yeasts = settings: "as low as"; cited from earlier work
[6] = as the formulation pH increases; cited from earlier work
dermatophites = settings: "as low as"; cited from earlier work
[7] = calcium thioglycolate added directly into ointment; cited from earlier work
[8] = prior to topical treatment of onychomycosis; cited from earlier work
[9] = Effect of urea on nail swelling/hydration in aqueous urea solutions; design: species or system human; settings: pH 4.5
Method: as §1
The effect of urea on nail swelling was investigated, using aqueous urea solutions of various concentrations at pH 4.5. […] For this reason, it is believed that the use of urea alone will not cause significant enhancement of drug permeation through the nail.

[10] = rats; skin pretreated with aqueous calcium thioglycolate solution; cited from earlier work

## N[C@@H](CS)C(=O)O [l-cysteine]
[1]
  rank of nail swelling enhancement: highest nail swelling enhancement

## Clc1ccc(COC(Cn2ccnc2)c2ccc(Cl)cc2Cl)c(Cl)c1 (centres unmarked) [miconazole nitrate]
[2]
  miconazole partitioning into the nail: substantial miconazole partitioning into the nail
[3]
  nail swelling: significant nail swelling

## CC(=O)N[C@@H](CS)C(=O)O [N-acetyl-l-cysteine, N-Acetyl-l-cysteine]
[4]
  working pH range: wide working pH range

## CC(=O)N1CCN(c2ccc(OCC3COC(Cn4ccnc4)(c4ccc(Cl)cc4Cl)O3)cc2)CC1 (centres unmarked) [ketoconazole]
[5]
  efficacy in topically treating onychomycosis: effective

## CCC(C)n1ncn(-c2ccc(N3CCN(c4ccc(OCC5COC(Cn6cncn6)(c6ccc(Cl)cc6Cl)O5)cc4)CC3)cc2)c1=O (centres unmarked) [itraconazole]
yeasts
  minimal inhibitory concentration (MIC): 0.1 µg/mL (≈ 0.142 µM)
[6]
  solubility versus formulation pH: decreases
dermatophites
  minimal inhibitory concentration (MIC): 0.1 µg/mL (≈ 0.142 µM)

## COc1ccc2c(c1)c(CC(=O)O)c(C)n2C(=O)c1ccc(Cl)cc1 [calcium salt of indomethacin, indomethacin]
[7]
  drug absorption: dramatically decreased the absorption

## NC(N)=O [urea]
[8]
  results of nonsurgical avulsion of nail dystrophies: satisfactory results
[9]; 20% aqueous urea
  nail hydration: 30%
[9]; 40% aqueous urea
  nail hydration: 50%

## Clc1ccc(COC(Cn2ccnc2)c2ccc(Cl)cc2Cl)c(Cl)c1 (centres unmarked) [miconazole]
[5]
  efficacy in topically treating onychomycosis: effective

## insulin
[10]
  transdermal drug permeation: enhanced transdermal drug permeation
